From BindingDB's records for doi:10.1021/acs.biochem.6b00446 (Avanti Polar Lipids, 2016)
Where “and” joins values, the source holds several entries; their conditions need not be identical. Identical values can stand only once.

Target: T1, Fatty acid-binding protein, liver (Mus musculus, UniProt P12710)
T1 sequence (P12710 whole entry): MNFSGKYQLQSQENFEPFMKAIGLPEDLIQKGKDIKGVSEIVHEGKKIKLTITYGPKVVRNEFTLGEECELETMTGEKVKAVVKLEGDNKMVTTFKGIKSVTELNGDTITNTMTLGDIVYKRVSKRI
Assay: FABP1 Fluorescent Ligand Displacement Assay
Source text: Data were corrected for the following blanks/controls: protein only, fluorescent ligand only, fluorescent ligand with anincreasing amount of nonfluorescent ligand, and photobleaching.

SMILES | Ki
CCCCC/C=C\C/C=C\C/C=C\C/C=C\CCCC(=O)OC(CO)CO | 61 nM
CCCCC/C=C\C/C=C\C/C=C\C/C=C\CCCC(=O)Nc1ccc(O)cc1 | 29 nM
C=C(C)[C@@H]1CCC(C)=C[C@H]1c1c(O)cc(CCCCC)cc1O [2-(6-Isopropenyl-3-methyl-cyclohex-2-enyl)-5-pentyl-benzene-1,3-diol (Cannabidiol)] | 167 nM
CCCCCCCC/C=C\CCCCCCCC(=O)OC(CO)CO [2-Oleoylmonoglycerol (2-OG)] | 40 nM
CCCCCCCCCCCCCCCC(=O)OC(CO)CO [2-Palmitoylmonoglycerol (2-PG)] | 70 nM
CCCCCCC(C)(C)c1cc(O)c2c(c1)OC(C)(C)[C@@H]1CC=C(CO)C[C@@H]21 [(6aR,10aR)-3-(1,1-dimethyl-heptyl)-9-hydroxymethyl-6,6-dimethyl-6a,7,10,10a-tetrahydro-6H-benzo[c]chromen-1-ol] | 850 nM
CCCCCc1cc(O)c2c(c1)OC(C)(C)[C@@H]1CCC(C)=C[C@@H]21 [(10R,10aR)-6,6,9-Trimethyl-3-pentyl-6a,7,8,10a-tetrahydro-6H-benzo[c]chromen-1-ol] | 1000 nM
CCc1c(-c2ccccc2)c(-c2ccccc2)nn1-c1ccccc1-c1cccc(OCC(=O)O)c1 [((2'-(5-ETHYL-3,4-DIPHENYL-1H-PYRAZOL-1-YL)-3-BIPHENYLYL)OXY)ACETIC ACID] | 21 nM and 52 nM
CCCCCCC(C)(C)c1ccc([C@@H]2C[C@H](O)CC[C@H]2CCCO)c(O)c1 [ChEMBL_75020] | 990 nM
CCC=CCC=CCC=CCC=CCC=CCC=CCCC(=O)NCCO [Docosahexaenoylethanolamide (DHEA)] | 163 nM
CCCCCn1cc(C(=O)c2cccc3ccccc23)c2ccccc21 [JWH-018] | 58 nM
CCCCCCCC/C=C\CCCCCCCC(=O)N[C@H](CO)Cc1ccc(O)cc1 [OMDM1] | 40 nM
CCCCCCCC/C=C\CCCCCCCC(=O)N[C@@H](CO)Cc1ccc(O)cc1 [OMDM2] | 40 nM
CCCCCCCC/C=C\CCCCCCCC(=O)NCCO [Oleamide MEA] | 43 nM
CC(=O)Nc1ccc(Nc2nc(-c3ccc(Cl)c(Cl)c3)cs2)cc1 [SCPI1] | 350 nM
COc1cc([N+](=O)[O-])cc2c1NC(c1ccc(Br)cc1)=NO2 [SCPI3] | 900 nM
Cc1ccc2c(c1)-c1c(ssc1=S)C(C)(C)N2C(=O)CC(C)C [SCPI4] | 33 nM
Cc1c(C(=O)NN2CCCCC2)nn(-c2ccc(Cl)cc2Cl)c1-c1ccc(Cl)cc1 [SR141716] | 2000 nM
CCCCCC=CCC=CCC=CCC=CCCCC(=O)Nc1ccc(O)cc1C [VDM11] | 37 nM
